Assay results reported in paper PMC7572767 (Psychopharmacology, 2020).

Molecular target: norepinephrine transporter (NET) (Homo sapiens, UniProt P23975)
Assay: fluorescent substrate uptake inhibition in HEK293 cells stably expressing NET
Type: cell-based

norepinephrine transporter (NET), sequence (P23975 whole entry): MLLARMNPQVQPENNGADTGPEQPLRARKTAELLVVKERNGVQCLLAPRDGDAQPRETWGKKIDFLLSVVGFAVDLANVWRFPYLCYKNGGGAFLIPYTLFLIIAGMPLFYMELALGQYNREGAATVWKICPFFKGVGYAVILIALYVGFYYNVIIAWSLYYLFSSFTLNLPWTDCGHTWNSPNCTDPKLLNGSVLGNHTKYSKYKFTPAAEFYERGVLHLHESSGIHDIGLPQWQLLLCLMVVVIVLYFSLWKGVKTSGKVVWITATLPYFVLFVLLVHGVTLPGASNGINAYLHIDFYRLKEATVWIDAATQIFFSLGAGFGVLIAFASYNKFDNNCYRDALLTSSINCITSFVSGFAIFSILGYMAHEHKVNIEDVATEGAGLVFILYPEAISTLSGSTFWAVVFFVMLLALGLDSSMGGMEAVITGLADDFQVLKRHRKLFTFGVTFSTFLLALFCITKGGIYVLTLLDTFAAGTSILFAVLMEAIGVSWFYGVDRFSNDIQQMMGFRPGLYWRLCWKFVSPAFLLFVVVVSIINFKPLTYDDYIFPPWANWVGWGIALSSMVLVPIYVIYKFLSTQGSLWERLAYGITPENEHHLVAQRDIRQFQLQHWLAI

## [O-][S@@+](Cc1cncs1)[C@@H](c1ccccc1)c1cccc(Br)c1 [(S, S)-CE-158, 5-(((S)-((S)-(3-bromophenyl)(phenyl)methyl)sulfinyl)methyl)thiazole]
  IC50: 12 µM
